According to patent US20140249095A1, “Method for Inhibiting Spinocerebellar Ataxia” (National Normal University, priority 2013, published 2014):

What was measured:
[1] = tested on: ATXN3/Q75 aggregation in 293 ATXN3/Q75-GFP cells; assay: ATXN3/Q75 aggregation assay on 293 cell model; assay type: cell-based, human; details: for ATXN3/Q75 aggregation as compared to untreated cells: 293 ATXN3/Q75-GFP cells, doxycycline and oxaliplatin 6 days; for IC50 cytotoxicity/effective dose ratio: effective dose = reduced the ATXN3/Q75 aggregation to 85% or lower
Protocol: (§1) The cloned pcDNA5/FRT/TO-ATXN3/Q14 and Q75 plasmids were used to generate the isogenic ATXN3/Q14˜75 cell lines by targeting insertion into Flp-In™-293 cells. These cell lines were grown in medium containing 5 μg/mL blasticidin and 100 μg/mL hygromycin (InvivoGen). In addition, human SH-SYSY-derived Flp-In host cell line was constructed as described, and the SH-SYSY host cells were used to generate isogenic ATXN3/Q14˜75 lines and maintained as described above. ATXN3/Q75 Aggregation Assay
Then, doxycycline (10 μg/mL, BD) was added to the medium in each well to induce ATXN3/Q75-GFP expression for 6 days.
In the present example, the influences of the P. lactiflora extract and paeoniflorin in the ATXN3/Q75-GFP cells were respectively examined.

[2] = tested on: SH-SY5Y cells
Protocol: (§2) Cells were cultivated at 37° C. incubator containing 5% CO2 and cell proliferation was measured based upon the reduction of the tetrazolium salt, 3,[4,5-dimethylthiazol-2-yl]-2,5-diphenyl-tetrazolium bromide (MTT). Cells were plated into 48-well (5×10^4/well) dishes, grown for 20 hours and treated with different concentrations of the P. lactiflora extract (5˜30 mg/mL) or pure compound (100 nM˜1 mM). After one day, 20 μL MTT (5 mg/mL in PBS, Sigma) was added to cells and incubated for 2 hours. The absorbance of the purple formazan dye was measured at 570 nm by a Bio-Tek μQuant Universal Microplate Spectrophotometer.

[3] = tested on: HEK-293 cells
Protocol: as §2

[4] = in vitro; details: human
Protocol: as §2

[5] = in vitro; details: human; remark: listed apart in the source
Protocol: as §2

[6] = tested on: ATXN3/Q75 aggregation in SH-SY5Y ATXN3/Q75-GFP cells; assay: ATXN3/Q75 aggregation assay on SH-SY5Y cell model; assay type: cell-based, human; details: paeoniflorin 100 nM; retinoic acid differentiated SH-SY5Y ATXN3/Q75-GFP cells, 6 days
Protocol: as §1

IC50 [2] [µM]	IC50 [3] [µM]	IC50 at 24 h [4] [µM]	IC50 at 24 h [5] [µM]	SMILES	ATXN3/Q75 aggregation as compared to untreated cells ([1]; at 100 nM) [%]	ATXN3/Q75 aggregation as compared to untreated cells ([1]; at 5 μM) [%]	IC50 cytotoxicity/effective dose ratio [1]	aggregation reduction in ATXN3/Q75 expressed neuronal cells [6] [%]
–	–	–	–	O=C(CCCCCCC(=O)Nc1ccccc1)NO [SAHA, suberoylanilide hydroxamic acid, reference compound]	85	–	–	–
> 1000	> 1000	–	–	C[C@]12C[C@@H](O)[C@@H]3C[C@@]1(O[C@@H]1O[C@H](CO)[C@@H](O)[C@H](O)[C@H]1O)[C@@]3(COC(=O)c1ccccc1)C(=O)O2 [albiflorin]	–	78	> 200	–
–	–	> 1000	> 1000	C[C@@]12C[C@@]3(O)O[C@@H](O1)[C@]1(COC(=O)c4ccccc4)[C@H]3C[C@@]12O[C@@H]1O[C@H](CO)[C@@H](O)[C@H](O)[C@H]1O [paeoniflorin]	73	–	> 10000	21
